Measured values: patent publication US10570179B2, “Substituted urea depsipeptide analogs as activators of the CLPP endopeptidase” (priority 2016, dated 2020)
Values after ≈ are worked out from the molar mass of the structure shown. Like-named read-outs stand apart in the source and are kept apart here. Numbered stars: 1 amine (or outer) side, 2 acyl side, 3 side chain; on linkers, the order of the positions; unused ones are H or OH. Bridge positions count the residues as written; N and C are the ends. Square brackets hold non-standard residues; d marks the D form. Peptide text beside a SMILES is read from it. * marks the point of attachment. Phe(3-CF3) = N[C@@H](Cc1cccc(C(F)(F)F)c1)C(=O)O; Piperazine(2S-CO,4-Me) = CN1CCN[C@H](C(=O)O)C1; Phe(3,5-Me2) = Cc1cc(C)cc(C[C@H](N)C(=O)O)c1; Phe(3-OMe) = COc1cccc(C[C@H](N)C(=O)O)c1; Phe(3-Me) = Cc1cccc(C[C@H](N)C(=O)O)c1; NH(4-Cl-2-F-phenyl) = Fc1cc(Cl)ccc1N*; Pro(4R-Me) = C[C@H]1CN[C@H](C(=O)O)C1; NH(4-Et-phenyl) = CCc1ccc(N*)cc1; NH(4-Me-phenyl) = Cc1ccc(N*)cc1; aThr = C[C@H](O)[C@H](N)C(=O)O; Pip = O=C(O)[C@@H]1CCCCN1; CO = O=C([*:1])[*:2]; X2 = Fc1cc(N*)ccc1Cl

Experiments:
[1] = Plasma stability assay; format: in vitro ADME, human
Procedure, shortened: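 Compounds at 10 μM final in human or mouse plasma, incubated at 37 °C and sampled at 0, 3, 24 and 48 h in triplicate. Reactions quenched with cold acetonitrile containing warfarin internal standard; parent measured by LC-MS. Half-life from least-squares first-order fit.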

[2] = system: S. pyogenes; experiment: Minimal inhibitory concentration, microbroth dilution; format: cell-based; conditions: Streptococcus pyogenes, read-out: Minimal Inhibitory Concentrations (μM) S. pyogenes
Procedure, shortened: (§1)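 Susceptibility testing used the CLSI dilution standard, with bacteria at ~10^5 cfu/mL exposed to a two-fold compound series beginning at 200 μM final. The endpoint is the lowest concentration showing no growth after overnight incubation (37 °C, aerobic).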

[3] = system: S. pneumoniae; experiment: as above; format: cell-based; conditions: Streptococcus pneumoniae, read-out: Minimal Inhibitory Concentrations (μM) S. pneumoniae
Procedure, shortened: as §1

[4] = Microsomal metabolic stability; format: in vitro ADME, mouse
Procedure, shortened: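 CD-1 mouse liver microsomes (0.6381 mg/mL protein microsomal solution, 0.1 M potassium phosphate pH 7.4 with EDTA) were incubated with compound and an NADPH-regenerating system at 37 °C, in triplicate. Acetonitrile/warfarin quench at 0, 15, 30, 60, 120 and 240 min, then LCMS. Half-life came from a first-order least-squares fit.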

[5] = system: B. subtilis; experiment: Minimal inhibitory concentration, microbroth dilution; format: cell-based; conditions: Bacillus subtilis, read-out: Minimal Inhibitory Concentrations (μM) B. subtilis
Procedure, shortened: as §1

[6] = Cytotoxicity assay (CellTiter-Glo cell viability); format: cell-based; conditions: African green monkey; Vero cells, 72 hours; read-out: Cytotoxicity IC50
Protocol: Cytotoxicity was determined by determining the effect of compounds on cell viability. Vero (kidney epithelial cells; ATCC CCL-81) monolayers were trypsinized and 5000 cells/well were seeded (10-15% confluency) into white-wall, flat bottom 96 well microwell plates (Corning) using enriched Dulbecco's Modified Eagle's Medium (Hyclone: DMEM/High Glucose) containing 10% Fetal Bovine Serum (ATCC-30-2020). Plates were incubated overnight at 37° C. in the presence of 5% CO2. Drug-free media was then replaced with media containing serial dilutions of test compound or DMSO carrier. After an additional 72 hours of incubation, viability was indirectly measured using the CellTiter-Glo® Luminescent Cell Viability (Promega) assay. Assay plates were read at peak emission wavelength of 560 nm using a EnVision® Multilabel Plate Reader (Perkin Elmer) or PHERAstar FS Multilabel reader (BMG, Cary, N.C.). The concentration of test compounds that inhibited growth by 50% (IC50 value) was computed using nonlinear regression based fitting of inhibition curves using log [inhibitor] vs. response-variable slope (four parameters)—symmetrical equation, in GraphPad Prism version 6 [GraphPad Software, La Jolla, Calif. USA, www.graphpad.com]. For each experiment, compounds were tested in duplicate. IC50 values presented are the range of two biologically independent experiments.

[7] = Plasma pharmacokinetics; format: in vivo, male BALB/c mice; conditions: male, BALB/c, mouse, in vivo, iv; for Vd: 10 mg/kg, Route i.v., read-out: Vss
[8] = plasma stability half-life, human plasma, 37° C.
[9] = microsomal metabolic stability half-life, mouse liver microsomes

SMILES: Cc1ccc(NC(=O)N[C@@H](Cc2cccc(C)c2)C(=O)N[C@H]2COC(=O)[C@@H]3C[C@@H](C)CN3C(=O)[C@H](C)NC(=O)[C@@H]3CN(C)CCN3C(=O)[C@@H]3CCCN3C2=O)cc1 [Compound 15, (S)-3-(M-TOLYL)-2-(3-(P-TOLYL)UREIDO)-N-((6AS,12S,15AS,17R,21S,23AS)-2,17,21-TRIMETHYL-6,11,15,20,23-PENTAOXOOCTADECAHYDRO-2H,6H,11H,15H-PYRAZINO[2,1-I]DIPYRROLO[2,1-C:2′,1′-L][1]OXA[4,7,10,13]TETRAAZACYCLOHEXADECIN-12-YL)PROPANAMIDE] ({NH(4-Me-phenyl)-CO}-[Phe(3-Me)]SP[Piperazine(2S-CO,4-Me)]A[Pro(4R-Me)]; ester 2-C)
- Human [1, 8]: >50 h
- MIC [2]: 0.313 µM (≈ 0.246 µg/mL)
- MIC [3]: 0.313 µM (≈ 0.246 µg/mL)
- Mouse [4, 9]: 2.28 ± 0.16 h

SMILES: Cc1ccc(NC(=O)N[C@@H](Cc2cc(C)cc(C)c2)C(=O)N[C@@H]2C(=O)N3CCC[C@H]3C(=O)N3CCCC[C@H]3C(=O)N[C@@H](C)C(=O)N3C[C@H](C)C[C@H]3C(=O)O[C@H]2C)cc1 [Compound 2, (S)-3-(3,5-DIMETHYLPHENYL)-2-(3-(P-TOLYL)UREIDO)-N-((2R,6S,8AS,14AS,20S,21S,23AS)-2,6,21-TRIMETHYL-5,8,14,19,23-PENTAOXOOCTADECAHYDRO-1H,5H,14H,19H-PYRIDO[2,1-I]DIPYRROLO[2,1-C:2′,1′-L][1]OXA[4,7,10,13]TETRAAZACYCLOHEXADECIN-20-YL)PROPANAMIDE] ({NH(4-Me-phenyl)-CO}-[Phe(3,5-Me2)][aThr]P[Pip]A[Pro(4R-Me)]; ester 2-C)
- Human (hr) [1, 8]: >>48 hr
- MIC [2]: > 20 µM
- MIC [5]: 0.625 µM (≈ 0.5 µg/mL)
- IC50 at 72 h [6]: > 100 µM
- Mouse [4, 9]: 2.85 h

SMILES: C[C@@H]1C[C@H]2C(=O)OC[C@H](NC(=O)[C@H](Cc3cccc(C(F)(F)F)c3)NC(=O)Nc3ccc(Cl)cc3F)C(=O)N3CCC[C@H]3C(=O)N3CCN(C)C[C@H]3C(=O)N[C@@H](C)C(=O)N2C1 [Compound 18, (S)-2-(3-(4-CHLORO-2-FLUOROPHENYL)UREIDO)-3-(3-(TRIFLUOROMETHYL)PHENYL)-N-((6AS,12S,15AS,17R,21S,23AS)-2,17,21-TRIMETHYL-6,11,15,20,23-PENTAOXOOCTADECAHYDRO-2H,6H,11H,15H-PYRAZINO[2,1-I]DIPYRROLO[2,1-C:2′,1′-L][1]OXA[4,7,10,13]TETRAAZACYCLOHEXADECIN-12-YL)PROPANAMIDE] ({NH(4-Cl-2-F-phenyl)-CO}-[Phe(3-CF3)]SP[Piperazine(2S-CO,4-Me)]A[Pro(4R-Me)]; ester 2-C)
- Human ([1]; human, 10 μM): 46.62 h
- MIC ([2]; MIC): 0.625 µM (≈ 0.55 µg/mL)
- MIC ([3]; MIC): < 0.02 µM
- Mouse ([4]; CD-1, mouse, pH 7.4): 1.88 ± 0.12 h

SMILES: CCc1ccc(NC(=O)N[C@@H](Cc2cccc(C)c2)C(=O)N[C@H]2COC(=O)[C@@H]3C[C@@H](C)CN3C(=O)[C@H](C)NC(=O)[C@@H]3CN(C)CCN3C(=O)[C@@H]3CCCN3C2=O)cc1 [Compound 16, (S)-2-(3-(4-ETHYLPHENYL)UREIDO)-3-(M-TOLYL)-N-((6AS,12S,15AS,17R,21S,23AS)-2,17,21-TRIMETHYL-6,11,15,20,23-PENTAOXOOCTADECAHYDRO-2H,6H,11H,15H-PYRAZINO[2,1-I]DIPYRROLO[2,1-C:2′,1′-L][1]OXA[4,7,10,13]TETRAAZACYCLOHEXADECIN-12-YL)PROPANAMIDE] ({NH(4-Et-phenyl)-CO}-[Phe(3-Me)]SP[Piperazine(2S-CO,4-Me)]A[Pro(4R-Me)]; ester 2-C)
- AUC(0-inf) [7]: 3770 ng·h/mL
- AUC(0-t) [7]: 3760 ng·h/mL
- C^0 [7]: 18634.35 ng/mL
- clearance [7]: 44.3 mL/min/kg
- half-life [7]: 0.25 h
- Vd [7]: 0.57 L/kg
- Human ([1]; human, 10 μM): >50 h
- MIC ([2]; MIC): 0.156 µM (≈ 0.125 µg/mL)
- MIC ([3]; MIC): 0.078 µM (≈ 0.0625 µg/mL)
- Mouse ([4]; CD-1, mouse, pH 7.4): 1.80 ± 0.09 h

SMILES: COc1cccc(C[C@H](NC(=O)Nc2ccc(Cl)cc2F)C(=O)N[C@H]2COC(=O)[C@@H]3C[C@@H](C)CN3C(=O)[C@H](C)NC(=O)[C@@H]3CN(C)CCN3C(=O)[C@@H]3CCCN3C2=O)c1 [Compound 19, (S)-2-(3-(4-CHLORO-2-FLUOROPHENYL)UREIDO)-3-(3-METHOXYPHENYL)-N-((6AS,12S,15AS,17R,21S,23AS)-2,17,21-TRIMETHYL-6,11,15,20,23-PENTAOXOOCTADECAHYDRO-2H,6H,11H,15H-PYRAZINO[2,1-I]DIPYRROLO[2,1-C:2′,1′-L][1]OXA[4,7,10,13]TETRAAZACYCLOHEXADECIN-12-YL)PROPANAMIDE] ({NH(4-Cl-2-F-phenyl)-CO}-[Phe(3-OMe)]SP[Piperazine(2S-CO,4-Me)]A[Pro(4R-Me)]; ester 2-C)
- Human ([1]; human, 10 μM): 62.38 h
- MIC ([2]; MIC): 10 µM (≈ 8.41 µg/mL)
- MIC ([3]; MIC): 2.5 µM (≈ 2.1 µg/mL)
- Mouse ([4]; CD-1, mouse, pH 7.4): 0.80 ± 0.05 h

SMILES: Cc1cccc(C[C@H](NC(=O)Nc2ccc(Cl)cc2F)C(=O)N[C@H]2COC(=O)[C@@H]3C[C@@H](C)CN3C(=O)[C@H](C)NC(=O)[C@@H]3CN(C)CCN3C(=O)[C@@H]3CCCN3C2=O)c1 [Compound 13, (S)-2-(3-(4-CHLORO-2-FLUOROPHENYL)UREIDO)-3-(M-TOLYL)-N-((6AS,12S,15AS,17R,21S,23AS)-2,17,21-TRIMETHYL-6,11,15,20,23-PENTAOXOOCTADECAHYDRO-2H,6H,11H,15H-PYRAZINO[2,1-I]DIPYRROLO[2,1-C:2′,1′-L][1]OXA[4,7,10,13]TETRAAZACYCLOHEXADECIN-12-YL)PROPANAMIDE] ({NH(4-Cl-2-F-phenyl)-CO}-[Phe(3-Me)]SP[Piperazine(2S-CO,4-Me)]A[Pro(4R-Me)]; ester 2-C)
- Human ([1]; human, 10 μM): 67.3 ± 13.7 h
- MIC ([2]; MIC): 0.313 µM (≈ 0.258 µg/mL)
- MIC ([3]; MIC): 0.156 µM (≈ 0.129 µg/mL)
- Mouse ([4]; CD-1, mouse, pH 7.4): 0.49 ± 0.03 h

SMILES: Cc1cccc(C[C@H](NC(=O)Nc2ccc(Cl)cc2F)C(=O)N[C@@H]2C(=O)N3CCC[C@H]3C(=O)N3CCCC[C@H]3C(=O)N[C@@H](C)C(=O)N3C[C@H](C)C[C@H]3C(=O)O[C@H]2C)c1 [Compound 3, (S)-2-(3-(4-CHLORO-2-FLUOROPHENYL)UREIDO)-3-(M-TOLYL)-N-((2R,6S,8AS,14AS,20S,21S,23AS)-2,6,21-TRIMETHYL-5,8,14,19,23-PENTAOXOOCTADECAHYDRO-1H,5H,14H,19H-PYRIDO[2,1-I]DIPYRROLO[2,1-C:2′,1′-L][1]OXA[4,7,10,13]TETRAAZACYCLOHEXADECIN-20-YL)PROPANAMIDE] ({NH(4-Cl-2-F-phenyl)-CO}-[Phe(3-Me)][aThr]P[Pip]A[Pro(4R-Me)]; ester 2-C)
- AUC(0-inf) [7]: 12600 ng·h/mL
- AUC(0-t) [7]: 12500 ng·h/mL
- C^0 [7]: 13482.56 ng/mL
- clearance [7]: 13.3 mL/min/kg
- half-life [7]: 3.4 h
- Vd [7]: 2.08 L/kg
- Human (hr) ([1]; human, 10 μM): >>48 hr
- MIC ([2]; MIC): 0.313 µM (≈ 0.258 µg/mL)
- MIC ([5]; MIC): 0.078 µM (≈ 0.0643 µg/mL)
- Mouse ([4]; CD-1, mouse, pH 7.4): 11.65 ± 2.2 h

SMILES: Cc1cccc(C[C@H](NC(=O)Nc2ccc(Cl)c(F)c2)C(=O)N[C@H]2COC(=O)[C@@H]3C[C@@H](C)CN3C(=O)[C@H](C)NC(=O)[C@@H]3CN(C)CCN3C(=O)[C@@H]3CCCN3C2=O)c1 [Compound 14, (S)-2-(3-(4-CHLORO-3-FLUOROPHENYL)UREIDO)-3-(M-TOLYL)-N-((6AS,12S,15AS,17R,21S,23AS)-2,17,21-TRIMETHYL-6,11,15,20,23-PENTAOXOOCTADECAHYDRO-2H,6H,11H,15H-PYRAZINO[2,1-I]DIPYRROLO[2,1-C:2′,1′-L][1]OXA[4,7,10,13]TETRAAZACYCLOHEXADECIN-12-YL)PROPANAMIDE] ({X2-CO}-[Phe(3-Me)]SP[Piperazine(2S-CO,4-Me)]A[Pro(4R-Me)]; ester 2-C)
- Human ([1]; human, 10 μM): 97.65 ± 17.0 h
- MIC ([2]; MIC): 1.25 µM (≈ 1.03 µg/mL)
- MIC ([3]; MIC): 0.625 µM (≈ 0.516 µg/mL)
- Mouse ([4]; CD-1, mouse, pH 7.4): 3.15 ± 0.26 h
